This is an account of results in PMC8609519, “Potent Inhibitor of Human Trypsins from the Aeruginosin Family of Natural Products” (ACS Chemical Biology, 2021).

Entries after “also recorded” stand apart in the source; their conditions may differ. A value given as a limit tells only on which side of the number the result lay.

Experiment [1] has as its system all three human trypsins. Also on record: method as in PMID 28463992. Particulars: equally inhibits all three human trypsins; cited from earlier work.
Experiment [2] concerns the target T1, human Factor Xa (Homo sapiens, UniProt P00742).
T1 construct: purchased Sigma
The experiment can be described thus: Serine protease inhibition, chromogenic substrate S-2222. It counts as biochemical. The settings on record: read-out: IC50, human Factor Xa. As for the experimental part:
(§1) Recombinant trypsinogens-1, -2, and -3 were produced inEscherichia coliand activated to trypsin-1, -2, and -3 as described previously.[45] The enzyme inhibitory activity of suomilide was determined in 96-well plates by adding 10 μL of diluted suomilide (0.21–3400 nM, diluted in ultra-purified water, containing up to 0.027% DMSO), 15 μL of 0.1% bovine serum albumin in 50 mM Tris-buffer saline (BSA/TBS), and 25 μL of each trypsin (1.88 nM). 10 μL of ultra-purified water was used as a control. […] Preincubation of suomilide with trypsin isoenzymes prior to the addition of the substrate was required for maximal inhibition (data not shown). Thus, suomilide was preincubated with trypsins at room temperature for 30 min before the addition of 50 μL of 0.2 mM chromogenic substrate S-2222 (ChromogeniX) in ultra-purified water. The change of absorbance at 405 nm was followed for 15 min (VICTOR X4 multilabel plate reader, PerkinElmer). The experiment was performed three times, each with two replicates (n = 3). The absorbance change during the phase of the substrate reaction in which the absorbance of the control reaction increased linearly over time was determined. The same experiment was performed with plasmin (Sigma) (15 nM) with chromogenic substrate S-2251 (ChromogeniX); plasma KLK (Sigma) (20 nM) with substrate ChromogeniX S-2302 (ChromogeniX); Factor Xa (Sigma) (3 nM) with substrate S-2222; and thrombin (Sigma) (1 nM) with substrate S-2238 (ChromogeniX). Except for urokinase from human kidney cells (Sigma) (125 IU), 15 μL of BSA/TBS with 0.9% NaCl was used. Nine 4-fold dilutions of suomilide were prepared, with 12.5 μM being the highest final concentration. The IC50 values were estimated using Quest Graph, and the standard error was calculated using MS Excel 2013.

Experiment [3] deals with T2, recombinant human trypsin-2 (Homo sapiens, UniProt P07478).
T2 construct: made in house; host or cells: Escherichia coli
The description is as above. The format is biochemical. Particulars: read-out: IC50, trypsin-2; 30 min preincubation, substrate S-2222, n = 3. As for the experimental part: as §1

For experiment [4], the target named is T3, trypsin-1 (Homo sapiens, UniProt P07477).
T3 construct: made in house; host or cells: Escherichia coli
The description is as above. It counts as biochemical. The settings on record: read-out: IC50, trypsin-1; 30 min preincubation, substrate S-2222, n = 3. As for the experimental part: as §1

The target of experiment [5] is T4, trypsin-3 (Homo sapiens, UniProt P35030).
T4 construct: made in house; host or cells: Escherichia coli
T4 sequence (P35030 81-304 limits assumed): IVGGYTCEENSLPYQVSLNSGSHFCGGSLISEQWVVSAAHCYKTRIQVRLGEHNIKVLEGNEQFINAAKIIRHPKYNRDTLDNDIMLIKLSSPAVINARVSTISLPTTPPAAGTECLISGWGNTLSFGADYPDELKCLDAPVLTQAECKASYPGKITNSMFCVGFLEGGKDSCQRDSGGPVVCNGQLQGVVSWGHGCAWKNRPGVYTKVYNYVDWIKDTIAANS
Described as above. It counts as biochemical. Particulars: read-out: IC50, trypsin-3; 30 min preincubation, substrate S-2222, n = 3. As for the experimental part: as §1

Experiment [6] deals with T5, human plasmin (Homo sapiens, UniProt P00747).
T5 construct: purchased Sigma
Nature of the experiment: Serine protease inhibition, chromogenic substrate S-2251. The format is biochemical. The settings on record: read-out: IC50, human plasmin. As for the experimental part: as §1, with “The same experiment was performed with plasmin (Sigma) (15 nM) with chromogenic substrate S-2251 (ChromogeniX); plasma KLK (Sigma) (20 nM) with substrate ChromogeniX S-2302 (ChromogeniX); Factor Xa (Sigma) (3 nM) with substrate S-2222; and thrombin (Sigma) (1 nM) with substrate S-2238 (ChromogeniX). Except for urokinase from human kidney cells (Sigma) (125 IU), 15 μL of BSA/TBS with 0.9% NaCl was used. Nine 4-fold dilutions of suomilide were prepared, with 12.5 μM being the highest final concentration.” left out

The target of experiment [7] is T6, human plasma kallikrein (Homo sapiens, UniProt P03952).
T6 construct: purchased Sigma
The experiment can be described thus: Serine protease inhibition, chromogenic substrate S-2302. It counts as biochemical. The settings on record: read-out: IC50, human plasma kallikrein. As for the experimental part:
as §1, with “The same experiment was performed with plasmin (Sigma) (15 nM) with chromogenic substrate S-2251 (ChromogeniX); plasma KLK (Sigma) (20 nM) with substrate ChromogeniX S-2302 (ChromogeniX); Factor Xa (Sigma) (3 nM) with substrate S-2222; and thrombin (Sigma) (1 nM) with substrate S-2238 (ChromogeniX). Except for urokinase from human kidney cells (Sigma) (125 IU), 15 μL of BSA/TBS with 0.9% NaCl was used. Nine 4-fold dilutions of suomilide were prepared, with 12.5 μM being the highest final concentration.” left out

Experiment [8] concerns the target T7, human urokinase (Homo sapiens, UniProt P00749).
T7 construct: purchased Sigma; host or cells: human kidney cells
Nature of the experiment: Serine protease inhibition, urokinase from human kidney cells. The format is biochemical. Particulars: read-out: IC50, human urokinase. As for the experimental part: as §1, with “The same experiment was performed with plasmin (Sigma) (15 nM) with chromogenic substrate S-2251 (ChromogeniX); plasma KLK (Sigma) (20 nM) with substrate ChromogeniX S-2302 (ChromogeniX); Factor Xa (Sigma) (3 nM) with substrate S-2222; and thrombin (Sigma) (1 nM) with substrate S-2238 (ChromogeniX). Except for urokinase from human kidney cells (Sigma) (125 IU), 15 μL of BSA/TBS with 0.9% NaCl was used. Nine 4-fold dilutions of suomilide were prepared, with 12.5 μM being the highest final concentration.” left out

In experiment [9] the target is T8, human thrombin (Homo sapiens, UniProt P00734).
T8 construct: purchased Sigma
Nature of the experiment: Serine protease inhibition, chromogenic substrate S-2238. The format is biochemical. Particulars: read-out: IC50, human thrombin, highest final concentration 12.5 μM. As for the experimental part: as §1, with “The same experiment was performed with plasmin (Sigma) (15 nM) with chromogenic substrate S-2251 (ChromogeniX); plasma KLK (Sigma) (20 nM) with substrate ChromogeniX S-2302 (ChromogeniX); Factor Xa (Sigma) (3 nM) with substrate S-2222; and thrombin (Sigma) (1 nM) with substrate S-2238 (ChromogeniX). Except for urokinase from human kidney cells (Sigma) (125 IU), 15 μL of BSA/TBS with 0.9% NaCl was used. Nine 4-fold dilutions of suomilide were prepared, with 12.5 μM being the highest final concentration.” left out

In experiment [10] the target is T3, trypsin-1. Nature of the experiment: Surface plasmon resonance (Biacore) kinetic analysis. The format is binding. Particulars: SPR. As for the experimental part:
(§2) The binding of suomilide to trypsin-1 and -3 was analyzed with surface plasmon resonance in Biacore 2000 instrumentation (Cytiva). […] The binding was analyzed using Tris-buffered saline (pH 7.4) containing 0.01% DMSO as the running buffer and a flow rate of 30 μL min^–1. The kinetics of the suomilide interaction with the trypsins were measured by varying suomilide concentrations from 250 to 4000 nM with a contact time of 5 min and a dissociation phase of 20 min. After the completion of the dissociation phase, the flow cells were regenerated with 10 mM Glycine, pH 1.7. The data were evaluated by first subtracting the sensorgrams obtained from the trypsin-3 mutant control flow cell from those obtained from the flow cells containing trypsin-1 or -3 for each suomilide concentration separately and overlaying the resulting sensorgrams for each ligand. Association and dissociation rate constants were obtained by the Langmuir global fit model (BiaEvaluation Software, Cytiva). The residence time was calculated as a reciprocal of the […].
A general note: SPR reads the build-up and loss of mass on a sensor chip optically.

In experiment [11] the target is T4, trypsin-3. The description is as above. Particulars: SPR. The format is binding. As for the experimental part:
as §2

Experiment [12] has as its system PC-3M prostate cancer cells. Nature of the experiment: Transwell cell invasion assay through Matrigel. The format is cell-based, human. Particulars: 3.3 μM, 4 days, Transwell with Matrigel. As for the experimental part:
(§3) PC-3M prostate cancer cells[46] were cultured in Ham’s F12 Nutrient Mix with GlutaMAX (Gibco), supplemented with 10% fetal calf serum (FCS), 100 IU mL^–1 penicillin, 100 μg mL^–1 streptomycin, and 0.15% sodium bicarbonate at 37 °C in a humidified, CO2-controlled (5%) incubator. For the invasion assay, PC-3M cells (1.45 × 10^5) in a serum-free medium containing 0 or 3.3 μM suomilide were added into polycarbonate membrane Transwell inserts with 8.0 μm pore size (Thermo Fisher) covered with 100 μL of the phenol red-free Matrigel basement membrane matrix (Corning) diluted 1:30 with phosphate-buffered saline. The inserts were placed into a 24-well plate containing 750 μL of the culture medium with 10% FCS and incubated for 4 days at 37 °C in a humidified, CO2-controlled (5%) incubator. Matrigel and the noninvasive cells were removed using cotton swabs, and the membranes were stained with 0.09% crystal violet for 10 min. The experiment was performed twice, both with four replicates (n = 2). The invasion was quantitated from microscopic images (three panels from each of the replicates) using Fiji ImageJ. […] After 3 days, 10 μL/well CCK-8 solution (Cell Counting Kit-8, Dojindo) was added, and absorbance at 450 nm was measured after 1.5 h incubation. […]

In experiment [13] the test system is PC-3M prostate cancer cells. Nature of the experiment: Cell proliferation assay (CCK-8). The settings on record: 3.3 μM, 3 days, cells on plastic surface. It counts as cell-based, human. As for the experimental part: as §3
Experiment [14] deals with unspecified but most likely non-human trypsin isoenzyme. More on the design: method as in doi:10.1016/s0040-4039(97)01193-3. Particulars: cited from earlier work.
For experiment [15], the system named is thrombin. More on the design: method as in doi:10.1016/s0040-4039(97)01193-3. The settings on record: cited from earlier work.
Experiment [16] concerns plasmin. Also on record: method as in doi:10.1016/s0040-4039(97)01193-3. Particulars: cited from earlier work.

T6 sequence (P03952 391-638 limits assumed): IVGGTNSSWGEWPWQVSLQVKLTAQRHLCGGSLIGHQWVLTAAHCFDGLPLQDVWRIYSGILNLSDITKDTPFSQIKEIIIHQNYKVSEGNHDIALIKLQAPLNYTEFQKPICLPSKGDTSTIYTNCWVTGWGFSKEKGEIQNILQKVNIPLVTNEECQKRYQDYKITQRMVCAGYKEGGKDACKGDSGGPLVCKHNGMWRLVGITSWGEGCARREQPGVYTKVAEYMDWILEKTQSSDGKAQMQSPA
T6 sequence (P03952 20-390 partner limits assumed): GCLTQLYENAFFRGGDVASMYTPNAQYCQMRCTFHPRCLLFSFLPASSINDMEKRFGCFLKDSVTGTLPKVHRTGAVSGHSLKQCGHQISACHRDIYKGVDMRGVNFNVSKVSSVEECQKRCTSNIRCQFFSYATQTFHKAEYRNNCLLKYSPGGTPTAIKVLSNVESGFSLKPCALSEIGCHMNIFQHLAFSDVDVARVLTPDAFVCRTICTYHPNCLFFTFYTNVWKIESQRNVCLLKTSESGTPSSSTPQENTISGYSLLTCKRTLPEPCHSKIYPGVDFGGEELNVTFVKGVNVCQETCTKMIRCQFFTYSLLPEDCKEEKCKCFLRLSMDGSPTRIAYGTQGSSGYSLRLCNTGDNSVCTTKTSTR
T1 sequence (P00742 235-488 limits assumed): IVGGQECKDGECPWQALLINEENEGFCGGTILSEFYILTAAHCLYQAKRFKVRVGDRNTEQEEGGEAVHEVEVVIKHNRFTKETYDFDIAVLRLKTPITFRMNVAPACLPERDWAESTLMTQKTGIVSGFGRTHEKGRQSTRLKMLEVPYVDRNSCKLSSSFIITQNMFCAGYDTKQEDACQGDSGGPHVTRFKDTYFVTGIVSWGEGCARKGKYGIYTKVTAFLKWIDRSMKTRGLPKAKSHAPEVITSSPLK
T1 sequence (P00742 41-179 partner limits assumed): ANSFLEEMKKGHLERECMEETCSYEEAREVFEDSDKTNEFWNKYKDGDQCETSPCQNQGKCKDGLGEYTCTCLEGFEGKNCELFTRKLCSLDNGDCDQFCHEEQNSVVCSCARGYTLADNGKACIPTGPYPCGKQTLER
T5 sequence (P00747 581-810 limits assumed): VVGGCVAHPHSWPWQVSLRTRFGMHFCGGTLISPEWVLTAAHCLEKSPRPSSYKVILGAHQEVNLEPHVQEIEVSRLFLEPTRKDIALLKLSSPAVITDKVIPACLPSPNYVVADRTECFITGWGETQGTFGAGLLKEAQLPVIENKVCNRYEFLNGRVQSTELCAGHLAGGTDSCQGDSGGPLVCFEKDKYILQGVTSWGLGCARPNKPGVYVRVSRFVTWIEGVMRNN
T5 sequence (P00747 97-580 partner limits assumed): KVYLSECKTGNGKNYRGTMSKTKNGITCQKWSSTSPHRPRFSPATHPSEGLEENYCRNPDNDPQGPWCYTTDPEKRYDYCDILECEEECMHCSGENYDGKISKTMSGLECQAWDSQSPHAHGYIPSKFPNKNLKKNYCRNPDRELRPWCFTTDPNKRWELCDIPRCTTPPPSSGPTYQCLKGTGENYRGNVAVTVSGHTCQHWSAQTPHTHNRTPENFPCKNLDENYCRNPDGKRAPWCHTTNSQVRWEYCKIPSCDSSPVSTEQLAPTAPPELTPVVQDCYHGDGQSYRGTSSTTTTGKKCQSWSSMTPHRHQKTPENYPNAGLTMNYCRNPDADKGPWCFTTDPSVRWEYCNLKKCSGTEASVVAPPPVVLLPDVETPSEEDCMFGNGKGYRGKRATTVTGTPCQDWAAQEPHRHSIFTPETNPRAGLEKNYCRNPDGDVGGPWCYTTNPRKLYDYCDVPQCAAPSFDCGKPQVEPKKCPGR
T2 sequence (P07478 24-247): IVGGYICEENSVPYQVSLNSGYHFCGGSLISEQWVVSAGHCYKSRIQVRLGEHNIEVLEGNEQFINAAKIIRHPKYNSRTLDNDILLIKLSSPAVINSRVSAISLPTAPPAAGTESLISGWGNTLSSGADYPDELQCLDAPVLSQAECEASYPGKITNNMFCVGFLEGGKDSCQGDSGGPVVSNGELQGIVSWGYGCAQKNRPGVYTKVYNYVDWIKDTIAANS

In the case of `N=C(N)c1ccc(/N=N/Nc2ccc(C(=N)N)cc2)cc1` [diminazene], the “inhibition of human trypsins (concentration range)” value in [1] was “micromolar concentrations”.
`CCCCCC(=O)OCC1OC(OC2CC3C(O)C4(C2)OC(=O)NC4C(C(=O)NCCC2=CCN(C(=N)N)C2)N3C(=O)C(NC(=O)C(COS(=O)(=O)O)OC)C(C)CC)C(OC(=O)CCCCC)C(O)C1O` (stereo not drawn) [suomilide]: the IC50 in experiment [2] was determined as 114 ± 2 nM; in experiment [3] it was 4.7 nM; in [4] it was 104 nM; in [5], 11.5 nM; in experiment [6], 7.6 ± 2.3 nM; in experiment [7], 82 ± 24 nM. The IC50 in experiment [8] is 7100 ± 1360 nM; in experiment [9], more than 12500 nM; in experiment [14] (unspecified, most likely non-human trypsin) it was 1800 nM. The kon came out at 33000 M⁻¹ s⁻¹ in [10] (immobilized trypsin-1, Langmuir global fit, read-out: ka (association rate constant), trypsin-1) and 12000 M⁻¹ s⁻¹ in [11] (immobilized trypsin-3, Langmuir global fit, read-out: ka (association rate constant), trypsin-3). In addition, the koff came to 0.011 s⁻¹ in [10] (immobilized trypsin-1, Langmuir global fit, read-out: kd (dissociation rate constant), trypsin-1) and 0.00029 s⁻¹ in experiment [11] (immobilized trypsin-3, Langmuir global fit, read-out: kd (dissociation rate constant), trypsin-3). Also, the residence time in experiment [10] (calculated as reciprocal of the dissociation constant, read-out: residence time (τ), trypsin-1) is 1.5 min; in experiment [11] (calculated as reciprocal of the dissociation constant, read-out: residence time (τ), trypsin-3), 57 min. In addition, the “effect on PC-3M cell invasion” value in experiment [12] is given as “inhibited the invasion; also recorded: significantly inhibited”. Also, the “effect on PC-3M cell proliferation” value in experiment [13] is on record as “without affecting cell proliferation; also recorded: did not affect”. Also, in experiment [14], the “inhibition of trypsin (concentration range)” value is recorded as “low micromolar concentrations”. Moreover, the “inhibition of thrombin (concentration range)” value in experiment [15] is “low micromolar concentrations”. Further, the “inhibition of plasmin (concentration range)” value in [16] is recorded as “low micromolar concentrations”.

The term residence time denotes the mean lifetime of the complex, commonly the reciprocal of the off-rate.
